Here are results for one molecule from patent US20070264200A1, “Mouse MRI for drug screening” (priority 2005, published 2007).

For data set [1] the following is noted: humans; cited from earlier work.
The conditions of data set [2]: mice, IV; cited from earlier work.
The nature of data set [3]: Physiological monitoring (SaO2, heart rate, respiratory rate, ECG) during MRI, pre versus post contrast agent. Format: in vivo. As to conditions: for changes in SaO2, HR, RR or ECG parameters (ST, T wave morphology, rhythm), pre versus post contrast agent: up to 2 hours after contrast agent. An excerpt: Wild type C57BL/6 mice 6-10 months of age (25-30 gr) were used in all experiments. Since variations in physiological processes can influence the MRI signal in the brain, various monitoring devices were used while the mouse was being imaged. Heart rate, respiratory rate and SaO2 were continuously monitored using pulse oximetry (Model V33304, Sergivet). The probe was attached to the lower abdomen. A rectal temperature was continuously monitored with a thermestor (YSI Precision Thermometer 4000A).
ECG was monitored in a physiogard (SM 785, Brucker) by using subcutaneous silver electrodes from the front limbs and the reference electrode placed at the right posterior limb.
Comparisons were made within the groups pre with post contrast agent up to 2 hours after IV (feridex or gadodiamide) or IP GD (10 mmol/kg) (Table 1).
Thus, 10 mmol/kg was identified as the optimum dose of GD, and this dose was used for all further experiment unless otherwise indicated. […] Since the goal is to keep scan time as short as possible, in order to minimize morbidity and mortality, a 45 minutes time point was identified as the optimum post-contrast time interval.

The conditions of data set [4]: rats, IV; cited from earlier work.
Where [5] appears, read: IP 15 mmol/kg, individual mice with toxicity, listed as GD.

Values joined by “and” are separate entries in the source; they are usually repeats but may differ in a detail not shown here. Equal values may be shown once. Read-outs that look alike come from different tables or passages of the source.

On to `CNC(=O)CN(CCN(CCN(CC(=O)[O-])CC(=O)NC)CC(=O)[O-])CC(=O)[O-].[Gd+3]` [gadodiamide], for which the figures for the elimination half-life entry in data set [1], in data set [2] and in data set [4] were “approximately 1.5 hours”, 5 to 6 min and “about 20 minutes”, respectively. Further, the “changes in SaO2, HR, RR or ECG parameters (ST, T wave morphology, rhythm), pre versus post contrast agent” value in data set [3] (IP 10 mmol/kg) and in data set [3] (IV) was “No significant changes” in each case. In data set [3] (setting [5]), the “RR (respiratory rate)” value was 100 and 110. Besides, in data set [3] (setting [5]), the SaO2 was 72 and 65. In data set [3] (IP 15 mmol/kg, two mice, procedure aborted), the “toxicity (significant changes in vital signs)” value is “caused toxicity”.
